Results reported in patent US9957253B2, “Triaminopyrimidine compounds useful for preventing or treating malaria” (MMV MEDICINES FOR MALARIA VENTURE, priority 2014, dated 2018).
Where a name gives a salt, the structure may show the parent alone. Read-outs that look alike come from different tables or passages of the source.

Assays:
human CYP 2C9 = human CYP 2C9 (Homo sapiens, UniProt P11712); assay: Time dependent CYP inhibition assay, CYP 2C9; type: in vitro ADME
human CYP 2D6 = biological target: T1, human CYP 2D6 (Homo sapiens, UniProt P10635); assay: Time dependent CYP inhibition assay, CYP 2D6; type: in vitro ADME
T1 construct: Mixture of 180 μL of 20 mg/mL HLM and 90 μL of substrate cocktail solution; from tissue; host or cells: human liver microsomes (HLM)
T1 sequence (P10635 whole entry): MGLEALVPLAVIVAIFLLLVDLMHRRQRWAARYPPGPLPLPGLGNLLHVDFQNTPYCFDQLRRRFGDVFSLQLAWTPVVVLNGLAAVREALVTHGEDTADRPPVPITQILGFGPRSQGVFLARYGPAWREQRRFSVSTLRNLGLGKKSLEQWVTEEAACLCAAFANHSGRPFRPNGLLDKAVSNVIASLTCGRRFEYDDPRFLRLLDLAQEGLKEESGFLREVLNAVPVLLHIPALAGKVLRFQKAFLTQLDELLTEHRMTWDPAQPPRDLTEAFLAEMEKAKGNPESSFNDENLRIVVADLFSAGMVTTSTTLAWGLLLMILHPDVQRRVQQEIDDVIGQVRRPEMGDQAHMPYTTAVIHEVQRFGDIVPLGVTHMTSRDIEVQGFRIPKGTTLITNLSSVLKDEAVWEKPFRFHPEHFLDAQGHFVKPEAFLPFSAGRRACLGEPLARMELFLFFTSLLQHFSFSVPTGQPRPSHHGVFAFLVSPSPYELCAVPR

[1] = Blood:Plasma (BP) ratio, rat; type: in vitro ADME
human CYP 1A2 = biological target: T2, human CYP 1A2 (Homo sapiens, UniProt P05177); assay: CYP inhibition assay, CYP 1A2; type: in vitro ADME
T2 sequence (P05177 1-516): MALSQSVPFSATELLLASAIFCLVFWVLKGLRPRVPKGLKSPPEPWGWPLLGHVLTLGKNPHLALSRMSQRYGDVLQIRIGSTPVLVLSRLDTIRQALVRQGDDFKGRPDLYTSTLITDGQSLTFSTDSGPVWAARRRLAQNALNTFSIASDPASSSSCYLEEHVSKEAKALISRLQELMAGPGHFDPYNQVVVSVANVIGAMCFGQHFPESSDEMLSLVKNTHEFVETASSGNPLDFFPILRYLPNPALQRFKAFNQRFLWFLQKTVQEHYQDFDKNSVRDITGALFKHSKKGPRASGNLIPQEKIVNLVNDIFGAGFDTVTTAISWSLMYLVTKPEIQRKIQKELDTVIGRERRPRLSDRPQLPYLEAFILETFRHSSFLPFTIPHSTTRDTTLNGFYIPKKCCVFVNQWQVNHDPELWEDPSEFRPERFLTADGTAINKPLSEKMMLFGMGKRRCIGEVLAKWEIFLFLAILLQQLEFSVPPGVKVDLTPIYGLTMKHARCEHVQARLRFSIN
Description: This study was conducted using specific substrates for 5 major human CYP isozymes. These substrates were used as a cocktail (phenacetin, diclofenac, S-mephenytoin, bufuralol and midazolam which are predominantly metabolised by CYP 1A2, 2C9, 2C19, 2D6 and 3A4/5, respectively) at concentrations equivalent to their respective Km values. LC-MS-MS (MRM mode) was used to follow the formation of the CYP specific metabolites. A decrease in the formation of the metabolites in peak area to vehicle control was used to calculate the IC50 value. […] Test compound was used at 6 different concentrations ([…]) to estimate IC50.
The incubation was carried out in 96 deep well plates. Mixture of 180 μL of 20 mg/mL HLM and 90 μL of substrate cocktail solution was added to 15840 μL of phosphate buffer and 179 μL of this mixture was mixed with 1 μL of the test compound, inhibitor cocktail solution or vehicle in each well. The final concentration of DMSO:ACN in the assay mix was 0.3:0.7% v/v. The incubation plate was placed into the water bath and pre-warmed at 37° C. for 5 min before the reactions were started by the addition of 20 μL of 10 mmol/L NADPH solution in phosphate buffer. After the addition of NADPH, the incubation plate was incubated at 37° C. for a further 5 min. The reaction was quenched by the addition of 1 volume (200 μL) of cold ACN containing 3% formic acid and 40 nmol/L verapamil. The plates were kept on ice for 20 min and then centrifuged at 4000 rpm for 30 min to precipitate protein. The supernatant 180 μL was transferred to the analysis plate for LC/MS/MS analysis.

[2] = Plasma protein binding assay (equilibrium dialysis), human; type: in vitro ADME
Description: Plasma Protein Binding Assay
Protein binding is measured using the equilibrium dialysis technique. Compound is added to 10% plasma giving a concentration of 20 μM and dialysed with isotonic buffer for 18 hours at 37° C. The plasma and buffer solutions are analysed using generic LCUVMS and the first apparent binding constant for the compound derived. The binding constant is then used to determine the % free in 100% plasma.

[3] = Prediction of human PK parameters (well stirred model); conditions: from human hepatocyte Clint and fu
Excerpt: Prediction of Human Pharmacokinetic (PK) Parameters Well stirred model was used for predicting human CL using human hepatocyte Clint and free fraction (fu) in human plasma. Liver blood flow rates, liver weights, hepatocellularity and in vitro in vivo correlation/extrapolation (IVIVC/E) templates routinely employed (Smith et al., Pharmacokinetics and Metabolism in Drug Design, Methods and Principles in Medicinal Chemistry Volume 13, 2004, Wiley-VCH, Weinheim, Germany) were used for prediction.

[4] = Blood:Plasma (BP) ratio, human; type: in vitro ADME
[5] = tested on: chloroquine sensitive NF54 strain of P. falciparum; assay: In vitro antiplasmodial activity (SYBR I), NF54 strain; type: cell-based, Plasmodium falciparum; conditions: Plasmodium falciparum
Description: Measuring In Vitro Antiplasmodial Activity
The test samples were tested in duplicate on two separate occasions against chloroquine sensitive NF54 (MRA-1000, MR4, ATCC, Manassas, Va.) and chloroquine-resistant K1 strains of P. falciparum. A modified method of Trager and Jensen was employed to maintain continuous in vitro cultures of asexual blood stages of P. falciparum (Trageret al., 1976, Science, 193, 673-675). Quantitative assessment of antiplasmodial activity in vitro was determined using the SYBR I method as described earlier (Johnson et al., 2007, Antimicrob. Agents Chemother., 51, 1926-1933).
The percent inhibition with respect to the drug-free control was plotted against the logarithm of drug concentration. The growth inhibition curves were fitted by nonlinear regression using the sigmoidal dose-response (variable slope) formula to yield the concentration-response curves. […] Chloroquine diphosphate (CQ) (Sigma), artesunate (Sigma), and pyrimethamine were used as reference drugs in all experiments.

[6] = human liver microsomes, substrate cocktail, read-out: IC50 CYP 1A2
[7] = NF54 strain, chloroquine sensitive, read-out: Pf IC50—NF54

Sequence of human CYP 2C9 (P11712 whole entry): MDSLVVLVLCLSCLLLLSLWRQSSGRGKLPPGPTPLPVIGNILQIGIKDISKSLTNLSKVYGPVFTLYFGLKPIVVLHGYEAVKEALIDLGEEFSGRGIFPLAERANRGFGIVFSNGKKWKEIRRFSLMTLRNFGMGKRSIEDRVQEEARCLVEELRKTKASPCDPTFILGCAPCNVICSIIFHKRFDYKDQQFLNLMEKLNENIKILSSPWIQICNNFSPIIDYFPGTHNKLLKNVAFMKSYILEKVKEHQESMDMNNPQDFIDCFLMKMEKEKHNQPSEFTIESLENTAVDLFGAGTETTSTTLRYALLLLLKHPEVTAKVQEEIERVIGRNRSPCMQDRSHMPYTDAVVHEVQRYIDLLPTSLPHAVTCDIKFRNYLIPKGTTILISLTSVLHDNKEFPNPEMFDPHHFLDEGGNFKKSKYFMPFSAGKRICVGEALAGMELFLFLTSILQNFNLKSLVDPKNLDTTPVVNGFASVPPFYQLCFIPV

SMILES	IC50 (human CYP 2C9) [µM]	IC50 (human CYP 2D6) [µM]	BP ratio [1]	IC50 (human CYP 1A2; [6]) [µM]	Fup [2]	Predicted CLh blood [3] [mL/min/kg]	BP ratio [4]	IC50 [5, 7] [µM]	IC50 (human CYP 1A2) [µM]	IC50 ([5]; NF54, read-out: Pf IC50—NF54) [µM]
Cc1nc(Nc2ncc(N3CCN(C)[C@H](C)C3)c(Nc3cc(C)n(C)n3)n2)cc(C2CC2)c1F [Example 13, (R)—N2-(4-cyclopropyl-5-fluoro-6-methylpyridin-2-yl)-N4-(1,5-dimethyl-1H-pyrazol-3-yl)-5-(3,4-dimethylpiperazin-1-yl)pyrimidine-2,4-diamine]	> 56	> 56	1.06	> 30	0.03	4.80	1.1	0.009	–	–
Cc1nc(Nc2ncc(N3CCN[C@H](C)C3)c(Nc3cnn(C)n3)n2)cc(C2CC2)c1Cl [Example 10, (R)—N2-(5-chloro-4-cyclopropyl-6-methylpyridin-2-yl)-N4-(2-methyl-2H-1,2,3-triazol-4-yl)-5-(3-methylpiperazin-1-yl)pyrimidine-2,4-diamine dihydochloride]	> 56	> 56	1.7	> 30	0.04	3.10	1.8	0.013	–	–
CCc1cc(Nc2ncc(N3CCN[C@H](C)C3)c(Nc3cc(C)n(C)n3)n2)nc(C)c1F [Example 7, (R)—N4-(1,5-dimethyl-1H-pyrazol-3-yl)-N2-(4-ethyl-5-fluoro-6-methylpyridin-2-yl)-5-(3-methylpiperazin-1-yl)pyrimidine-2,4-diamine dihydrochloride]	> 56	> 56	2.2	–	0.03	3.30	1.3	–	> 30	0.027
